The experiment deals with CD2F1 mice, L1210 leukemia ip, survival T/C. In words: NCI In Vivo Anticancer Drug Screen. Data for tumor model L1210 Leukemia (intraperitoneal) in CD2F1 (CDF1) mice. The following applies: higher = longer survival. A digest of the protocol: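 Antitumor effect is scored in animals hosting a serially transplanted tumor. Values compare compound-dosed animals against vehicle-only controls as a simple quotient.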

Where [1] appears, read: endpoint: mean survival time, dose: 100.0 mg/kg/injection, schedule: Q01DX009 (ip), vehicle: saline.
Where [2] appears, read: endpoint: mean survival time, dose: 200.0 mg/kg/injection, schedule: Q01DX009 (ip), vehicle: saline.
Where [3] appears, read: endpoint: mean survival time, dose: 400.0 mg/kg/injection, schedule: Q01DX009 (ip), vehicle: saline.
The mark [4] stands for this setting: endpoint: mean survival time, dose: 100.0 mg/kg/injection, schedule: Q01DX009 (ip), vehicle: Klucel (hydroxypropylcellulose) (HPC).
[5] abbreviates: endpoint: mean survival time, dose: 200.0 mg/kg/injection, schedule: Q01DX009 (ip), vehicle: Klucel (hydroxypropylcellulose) (HPC).
Where [6] appears, read: endpoint: mean survival time, dose: 100.0 mg/kg/injection, schedule: Q04DX003 (ip), vehicle: saline with Tween-80.
Where [7] appears, read: endpoint: mean survival time, dose: 200.0 mg/kg/injection, schedule: Q04DX003 (ip), vehicle: saline with Tween-80.
Setting [8] is: endpoint: mean survival time, dose: 100.0 mg/kg/injection, schedule: Q01DX001 (ip), vehicle: saline with Tween-80.
[9] abbreviates: endpoint: mean survival time, dose: 200.0 mg/kg/injection, schedule: Q01DX001 (ip), vehicle: saline with Tween-80.
Setting [10] is: endpoint: mean survival time, dose: 400.0 mg/kg/injection, schedule: Q01DX001 (ip), vehicle: saline with Tween-80.
[11] abbreviates: endpoint: mean survival time, dose: 100.0 mg/kg/injection, schedule: Q01DX009 (ip), vehicle: saline with Tween-80.
The mark [12] stands for this setting: endpoint: mean survival time, dose: 200.0 mg/kg/injection, schedule: Q01DX009 (ip), vehicle: saline with Tween-80.
Setting [13] is: endpoint: mean survival time, dose: 400.0 mg/kg/injection, schedule: Q01DX009 (ip), vehicle: saline with Tween-80.
[14] abbreviates: endpoint: mean survival time, dose: 100.0 mg/kg/injection, schedule: Q04DX003 (ip), vehicle: saline.
[15] abbreviates: endpoint: mean survival time, dose: 200.0 mg/kg/injection, schedule: Q04DX003 (ip), vehicle: saline.
Where [16] appears, read: endpoint: mean survival time, dose: 400.0 mg/kg/injection, schedule: Q04DX003 (ip), vehicle: saline.

This note sets out measurements from PubChem BioAssay AID256 (DTP/NCI, 2004).

Where “and” joins values, the source holds several entries; their conditions need not be identical. Equal values may be shown once. Toxic doses and inconclusive results are not listed. Residues, ends and D or L forms follow the SMILES beside them. *: point of attachment. Trt = c1ccc(C(c2ccccc2)(c2ccccc2)*)cc1

Regarding `Cc1ccc(C(=O)c2ccc(C)cc2)cc1`, the T/C is 90 % of control under setting [1]; 93 % of control (endpoint: mean survival time, dose: 100.0 mg/kg/injection, schedule: Q04DX002 (ip), vehicle: saline); 93 % of control under setting [2]; 95 % of control (endpoint: mean survival time, dose: 200.0 mg/kg/injection, schedule: Q04DX002 (ip), vehicle: saline); 93 % of control under setting [3]; 95 % of control (endpoint: mean survival time, dose: 400.0 mg/kg/injection, schedule: Q04DX002 (ip), vehicle: saline).

For `O=C1C(=O)c2cccnc2C(NC2CC3CCC2C3)=C1Cl` (configuration not stated), the T/C is, setting by setting: (endpoint: mean survival time, dose: 75.0 mg/kg/injection, schedule: Q04DX003 (ip), vehicle: saline) 95 % of control; (endpoint: mean survival time, dose: 150.0 mg/kg/injection, schedule: Q04DX003 (ip), vehicle: saline) 98 % of control; (endpoint: mean survival time, dose: 300.0 mg/kg/injection, schedule: Q04DX003 (ip), vehicle: saline) 97 % of control.

For `O=C(O)/C=C/c1cccs1`, the T/C by setting is: (endpoint: mean survival time, dose: 50.0 mg/kg/injection, schedule: Q01DX009 (ip), vehicle: Klucel (hydroxypropylcellulose) (HPC)) 101 % of control; under setting [4], 101 % of control; under setting [5], 96 % of control.

As to `O=c1nc2n(cc1F)C1OC(CCl)C(O)C1O2` (configuration not stated), the T/C by setting is: (endpoint: median survival time, dose: 12.5 mg/kg/injection, schedule: Q01DX005 (ip), vehicle: saline with Tween-80) 101 % of control; (endpoint: median survival time, dose: 25.0 mg/kg/injection, schedule: Q01DX005 (ip), vehicle: saline with Tween-80) 104 % of control; (endpoint: median survival time, dose: 50.0 mg/kg/injection, schedule: Q01DX005 (ip), vehicle: saline with Tween-80) 97 % of control; (endpoint: median survival time, dose: 100.0 mg/kg/injection, schedule: Q01DX005 (ip), vehicle: saline with Tween-80) 101 % of control; (endpoint: median survival time, dose: 200.0 mg/kg/injection, schedule: Q01DX005 (ip), vehicle: saline with Tween-80) 105 % of control.

`CC(C)(C)C1SCC(CO)CS1` (configuration not stated): the T/C is 97 % of control (endpoint: mean survival time, dose: 100.0 mg/kg/injection, schedule: Q04DX002 (ip), vehicle: saline with Tween-80); 102 % of control (endpoint: mean survival time, dose: 200.0 mg/kg/injection, schedule: Q04DX002 (ip), vehicle: saline with Tween-80); 91 % of control (endpoint: mean survival time, dose: 400.0 mg/kg/injection, schedule: Q04DX002 (ip), vehicle: saline with Tween-80).

As to `CCOC(=O)C(O)(CC)CCC(C)C` (configuration not stated), the T/C under setting [6] is 105 % of control and the T/C under setting [7] is 86 % of control.

For `Cc1ccc(S(=O)(=O)Nc2ccc(Cl)c(Cl)c2)cc1`, the T/C by setting is: under setting [8], 104 % of control; under setting [4], 105 % of control; under setting [9], 101 % of control; under setting [5], 95 % of control; under setting [10], 103 % of control.

For `CC(=O)C(C(C)=O)C1C=CCC1` (configuration not stated), the T/C was 107 % of control under setting [11], 104 % of control under setting [12] and 101 % of control under setting [13].

On to `CC(=O)C(C(C)=O)C(=[C-]C(F)(F)F)C(F)(F)F.CC(=O)C(C(C)=O)C(=[C-]C(F)(F)F)C(F)(F)F.[Pd+2]`, for which the T/C was 102 % of control (endpoint: mean survival time, dose: 3.13 mg/kg/injection, schedule: Q04DX003 (ip), vehicle: distilled water + Tween-80); 96 % of control (endpoint: mean survival time, dose: 6.25 mg/kg/injection, schedule: Q04DX003 (ip), vehicle: distilled water + Tween-80); 102 % of control (endpoint: mean survival time, dose: 12.5 mg/kg/injection, schedule: Q04DX003 (ip), vehicle: distilled water + Tween-80).

In the case of `CC(C)(C)C(C)(O)CN` (configuration not stated), the T/C reads like this: under setting [14], 95 % of control; under setting [15], 101 % of control; under setting [16], 92 % of control.

On to `CCSC(=N)N`, for which the T/C is 94 % of control under setting [14], 91 % of control under setting [15] and 97 % of control under setting [16].

As for `S=C(N/N=C1/CCCC/C1=N/NC(=S)N1CCOCC1)N1CCOCC1`, the T/C was 95 % of control (endpoint: median survival time, dose: 1.5 mg/kg/injection, schedule: Q01DX009 (ip), vehicle: saline with Tween-80); 96 % of control (endpoint: median survival time, dose: 3.0 mg/kg/injection, schedule: Q01DX009 (ip), vehicle: saline with Tween-80); 108 % of control (endpoint: median survival time, dose: 6.0 mg/kg/injection, schedule: Q01DX009 (ip), vehicle: saline with Tween-80); 109 % of control (endpoint: median survival time, dose: 12.0 mg/kg/injection, schedule: Q01DX009 (ip), vehicle: saline with Tween-80).

For `O=C1OC(=O)C2C1C1CCC2C1(c1ccccc1)c1ccccc1` (configuration not stated), the T/C is, setting by setting: under setting [6], 97 % of control; under setting [7], 97 % of control; (endpoint: mean survival time, dose: 400.0 mg/kg/injection, schedule: Q04DX003 (ip), vehicle: saline with Tween-80) 97 % of control.

`Nc1ccc(S(=O)(=O)O)cc1[N+](=O)[O-]`: the T/C under setting [1] is 92 % of control, the T/C under setting [2] was 97 % of control and the T/C under setting [3] is 101 % of control.

Turning to `COC(=O)C(CC(C)C)NC(=O)C(N)CSC(c1ccccc1)(c1ccccc1)c1ccccc1` (configuration not stated) (H-Cys(Trt)-Leu-OMe; configuration not given here), the T/C is, setting by setting: (endpoint: mean survival time, dose: 25.0 mg/kg/injection, schedule: Q01DX009 (ip), vehicle: saline) 104 % of control; (endpoint: mean survival time, dose: 50.0 mg/kg/injection, schedule: Q01DX009 (ip), vehicle: saline) 110 % of control; under setting [1], 108 % of control.

With `O=CC(CO)OC(C=O)n1ccc(=O)[nH]c1=O` (configuration not stated), the T/C is, setting by setting: (endpoint: median survival time, dose: 50.0 mg/kg/injection, schedule: Q04DX003 (ip), vehicle: saline) 116 % of control; (endpoint: median survival time, dose: 200.0 mg/kg/injection, schedule: Q04DX003 (ip), vehicle: saline) 178 % of control; (endpoint: median survival time, dose: 400.0 mg/kg/injection, schedule: Q04DX003 (ip), vehicle: saline) 285 % of control; (endpoint: median survival time, dose: 800.0 mg/kg/injection, schedule: Q04DX003 (ip), vehicle: saline) 261 % of control.

Regarding `COc1ccc(C(=O)c2no[n+]([O-])c2C(=O)c2ccc(OC)cc2)cc1`, the T/C (endpoint: mean survival time, dose: 12.5 mg/kg/injection, schedule: Q01DX009 (ip), vehicle: saline with Tween-80) is 100 % of control; the T/C (endpoint: mean survival time, dose: 25.0 mg/kg/injection, schedule: Q01DX009 (ip), vehicle: saline with Tween-80) was 97 % of control; the T/C (endpoint: mean survival time, dose: 50.0 mg/kg/injection, schedule: Q01DX009 (ip), vehicle: saline with Tween-80) was 101 % of control; the T/C under setting [11] was 97 % of control and 98 % of control; the T/C under setting [12] is 98 % of control and 102 % of control; the T/C under setting [13] is 97 % of control and 110 % of control.

Turning to `CN(CCCOS(C)(=O)=O)CCCN(C)CCCOS(C)(=O)=O`, the T/C is 115 % of control (endpoint: mean survival time, dose: 10.0 mg/kg/injection, schedule: Q01DX001 (ip), vehicle: saline); 107 % of control (endpoint: mean survival time, dose: 20.0 mg/kg/injection, schedule: Q01DX001 (ip), vehicle: saline); 115 % of control (endpoint: mean survival time, dose: 40.0 mg/kg/injection, schedule: Q01DX001 (ip), vehicle: saline); 124 % of control (endpoint: mean survival time, dose: 60.0 mg/kg/injection, schedule: Q01DX001 (ip), vehicle: saline); 115 % of control (endpoint: mean survival time, dose: 80.0 mg/kg/injection, schedule: Q01DX001 (ip), vehicle: saline); 117 % of control (endpoint: mean survival time, dose: 100.0 mg/kg/injection, schedule: Q01DX001 (ip), vehicle: saline).

On to `BrC1CC2CC1C1C=CCC21` (configuration not stated), for which the T/C reads like this: under setting [11], 100 % of control; under setting [12], 101 % of control; under setting [13], 101 % of control.

Consider `CCCCCCCCCCCCCCCCC(CCC)C1CCCCC1` (configuration not stated), for which the T/C reads like this: under setting [8], 92 % of control; under setting [9], 104 % of control; under setting [10], 101 % of control.

With `O=C1C(Br)=C(c2ccccc2)C(=O)C(Br)=C1c1ccccc1`, the T/C (endpoint: mean survival time, dose: 100.0 mg/kg/injection, schedule: Q04DX002 (ip), vehicle: Klucel (hydroxypropylcellulose) (HPC)) was 90 % of control; the T/C (endpoint: mean survival time, dose: 200.0 mg/kg/injection, schedule: Q04DX002 (ip), vehicle: Klucel (hydroxypropylcellulose) (HPC)) is 86 % of control; the T/C (endpoint: mean survival time, dose: 400.0 mg/kg/injection, schedule: Q04DX002 (ip), vehicle: Klucel (hydroxypropylcellulose) (HPC)) was 90 % of control.
